These are literature values, as cited in paper PMC4128962 (Journal of controlled release : official journal of the …, 2013).

Take Hyaluronic acid [HA]: the pKa entry is recorded as “about 3.0”.
